Read-outs that look alike come from different tables or passages of the source. Each block holds one compound with its values, some of them ahead of it.
Tests used:
Assay in all cases: biochemical
Parameters in all cases: species or system human cell line lysate
[1] = biological target: Bone morphogenetic protein receptor type-1A ; BMPR1A ; P36894 (Homo sapiens, UniProt P36894)
[2] = biological target: Isoform 4 of Serine/threonine-protein kinase PAK 4 ; PAK4 ; O96013-4 (Homo sapiens, UniProt O96013)
[3] = biological target: Tyrosine-protein kinase Lyn ; LYN ; P07948 (Homo sapiens, UniProt P07948)
[4] = biological target: Dual specificity protein kinase CLK1 ; CLK1 ; P49759 (Homo sapiens, UniProt P49759)
[5] = biological target: Dual specificity protein kinase CLK2 ; CLK2 ; P49760 (Homo sapiens, UniProt P49760)
[6] = biological target: Tyrosine-protein kinase JAK2 ; JAK2 ; O60674 (Homo sapiens, UniProt O60674)
[7] = biological target: Serine/threonine-protein kinase TBK1 ; TBK1 ; Q9UHD2 (Homo sapiens, UniProt Q9UHD2)
[8] = biological target: Serine/threonine-protein kinase MRCK beta ; CDC42BPB ; Q9Y5S2 (Homo sapiens, UniProt Q9Y5S2)
[9] = biological target: Isoform 6 of Tyrosine-protein kinase ABL2 ; ABL2 ; P42684-6 (Homo sapiens, UniProt P42684)
[10] = biological target: MAP/microtubule affinity-regulating kinase 4 ; MARK4 ; Q96L34 (Homo sapiens, UniProt Q96L34)
[11] = biological target: 5'-AMP-activated protein kinase catalytic subunit alpha-2 ; PRKAA2 ; P54646 (Homo sapiens, UniProt P54646)
[12] = biological target: Adenylate kinase isoenzyme 6 ; AK6 ; Q9Y3D8 (Homo sapiens, UniProt Q9Y3D8)
[13] = biological target: Mitogen-activated protein kinase 6 ; MAPK6 ; Q16659 (Homo sapiens, UniProt Q16659)
[14] = biological target: Mitogen-activated protein kinase 15 ; MAPK15 ; Q8TD08 (Homo sapiens, UniProt Q8TD08)
[15] = biological target: Ephrin type-A receptor 2 ; EPHA2 ; P29317 (Homo sapiens, UniProt P29317)
[16] = biological target: Serine/threonine-protein kinase 3 ; STK3 ; Q13188 (Homo sapiens, UniProt Q13188)
[17] = biological target: STE20-like serine/threonine-protein kinase ; SLK ; Q9H2G2 (Homo sapiens, UniProt Q9H2G2)
[18] = biological target: Inositol polyphosphate multikinase ; IPMK ; Q8NFU5 (Homo sapiens, UniProt Q8NFU5)
[19] = biological target: Serine/threonine-protein kinase D2 ; PRKD2 ; Q9BZL6 (Homo sapiens, UniProt Q9BZL6)
[20] = biological target: Serine/threonine-protein kinase PDIK1L ; PDIK1L ; Q8N165 (Homo sapiens, UniProt Q8N165)
[21] = biological target: Serine/threonine-protein kinase 4 ; STK4 ; Q13043 (Homo sapiens, UniProt Q13043)
[22] = biological target: Ribosomal protein S6 kinase alpha-6 ; RPS6KA6 ; Q9UK32 (Homo sapiens, UniProt Q9UK32)
[23] = biological target: Phosphatidylinositol 3-kinase catalytic subunit type 3 ; PIK3C3 ; Q8NEB9 (Homo sapiens, UniProt Q8NEB9)
[24] = read-out: BAY-1251152 (10 µM) / %Intensity relative to DMSO
[25] = read-out: BAY-1143572 (10 µM) / %Intensity relative to DMSO

Bone morphogenetic protein receptor type-1A ; BMPR1A ; P36894, sequence (P36894 whole entry, canonical isoform): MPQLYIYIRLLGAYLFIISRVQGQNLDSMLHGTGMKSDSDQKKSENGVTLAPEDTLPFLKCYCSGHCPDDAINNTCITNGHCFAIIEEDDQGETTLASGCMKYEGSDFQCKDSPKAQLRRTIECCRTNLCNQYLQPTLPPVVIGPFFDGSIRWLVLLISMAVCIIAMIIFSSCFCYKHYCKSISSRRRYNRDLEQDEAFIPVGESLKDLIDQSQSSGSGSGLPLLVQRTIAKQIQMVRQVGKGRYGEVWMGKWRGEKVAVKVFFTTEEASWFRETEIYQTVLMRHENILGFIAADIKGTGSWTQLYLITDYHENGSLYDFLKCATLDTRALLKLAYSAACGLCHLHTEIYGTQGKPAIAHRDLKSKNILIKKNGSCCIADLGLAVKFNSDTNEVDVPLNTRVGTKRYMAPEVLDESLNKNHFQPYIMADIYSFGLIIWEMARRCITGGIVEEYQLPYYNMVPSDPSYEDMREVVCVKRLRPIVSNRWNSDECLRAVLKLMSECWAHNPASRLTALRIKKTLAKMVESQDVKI
Dual specificity protein kinase CLK2 ; CLK2 ; P49760, sequence (P49760 whole entry): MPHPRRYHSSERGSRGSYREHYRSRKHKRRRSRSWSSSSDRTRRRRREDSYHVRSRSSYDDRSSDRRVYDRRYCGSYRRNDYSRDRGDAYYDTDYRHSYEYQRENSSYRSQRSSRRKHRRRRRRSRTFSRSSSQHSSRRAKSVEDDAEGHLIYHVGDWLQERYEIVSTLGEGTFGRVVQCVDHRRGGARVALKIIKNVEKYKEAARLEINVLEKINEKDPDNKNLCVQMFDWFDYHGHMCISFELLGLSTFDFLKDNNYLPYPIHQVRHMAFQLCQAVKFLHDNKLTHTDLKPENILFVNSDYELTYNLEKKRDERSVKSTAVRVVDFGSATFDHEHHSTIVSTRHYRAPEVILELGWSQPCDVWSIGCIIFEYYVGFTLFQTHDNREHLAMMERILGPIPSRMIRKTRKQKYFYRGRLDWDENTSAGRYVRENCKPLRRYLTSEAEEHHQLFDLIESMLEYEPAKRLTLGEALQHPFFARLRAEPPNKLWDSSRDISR
Tyrosine-protein kinase Lyn ; LYN ; P07948, sequence (P07948 whole entry): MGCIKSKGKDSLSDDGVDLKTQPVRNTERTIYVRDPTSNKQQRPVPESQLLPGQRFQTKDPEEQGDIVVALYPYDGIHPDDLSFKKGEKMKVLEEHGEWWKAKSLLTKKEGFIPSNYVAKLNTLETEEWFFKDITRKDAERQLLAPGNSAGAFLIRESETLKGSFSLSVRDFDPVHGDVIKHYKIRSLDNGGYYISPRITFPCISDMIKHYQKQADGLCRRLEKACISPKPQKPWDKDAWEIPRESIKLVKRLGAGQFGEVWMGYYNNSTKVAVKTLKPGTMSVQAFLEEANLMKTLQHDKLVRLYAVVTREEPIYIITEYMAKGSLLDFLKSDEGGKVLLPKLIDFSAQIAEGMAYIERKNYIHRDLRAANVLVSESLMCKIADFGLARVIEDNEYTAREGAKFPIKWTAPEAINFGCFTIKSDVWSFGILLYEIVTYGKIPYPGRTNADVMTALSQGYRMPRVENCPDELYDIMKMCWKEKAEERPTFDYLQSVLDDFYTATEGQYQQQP
5'-AMP-activated protein kinase catalytic subunit alpha-2 ; PRKAA2 ; P54646, sequence (P54646 whole entry, one chain of several): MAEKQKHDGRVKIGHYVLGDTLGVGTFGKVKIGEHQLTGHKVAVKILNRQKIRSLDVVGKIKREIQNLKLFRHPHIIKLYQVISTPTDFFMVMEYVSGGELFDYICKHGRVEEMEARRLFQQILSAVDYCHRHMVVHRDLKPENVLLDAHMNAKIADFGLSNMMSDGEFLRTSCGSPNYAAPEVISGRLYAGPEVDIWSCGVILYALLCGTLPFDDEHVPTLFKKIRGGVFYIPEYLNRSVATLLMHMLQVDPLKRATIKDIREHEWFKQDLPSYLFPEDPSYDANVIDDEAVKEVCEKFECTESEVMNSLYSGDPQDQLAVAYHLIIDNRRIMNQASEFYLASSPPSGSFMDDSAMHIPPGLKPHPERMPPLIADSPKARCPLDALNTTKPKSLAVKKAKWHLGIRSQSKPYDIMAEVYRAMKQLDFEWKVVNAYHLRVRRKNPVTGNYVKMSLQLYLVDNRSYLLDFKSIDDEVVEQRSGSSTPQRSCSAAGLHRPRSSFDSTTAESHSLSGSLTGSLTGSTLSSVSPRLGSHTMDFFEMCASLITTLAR
Serine/threonine-protein kinase 4 ; STK4 ; Q13043, sequence (Q13043 whole entry, one chain of several): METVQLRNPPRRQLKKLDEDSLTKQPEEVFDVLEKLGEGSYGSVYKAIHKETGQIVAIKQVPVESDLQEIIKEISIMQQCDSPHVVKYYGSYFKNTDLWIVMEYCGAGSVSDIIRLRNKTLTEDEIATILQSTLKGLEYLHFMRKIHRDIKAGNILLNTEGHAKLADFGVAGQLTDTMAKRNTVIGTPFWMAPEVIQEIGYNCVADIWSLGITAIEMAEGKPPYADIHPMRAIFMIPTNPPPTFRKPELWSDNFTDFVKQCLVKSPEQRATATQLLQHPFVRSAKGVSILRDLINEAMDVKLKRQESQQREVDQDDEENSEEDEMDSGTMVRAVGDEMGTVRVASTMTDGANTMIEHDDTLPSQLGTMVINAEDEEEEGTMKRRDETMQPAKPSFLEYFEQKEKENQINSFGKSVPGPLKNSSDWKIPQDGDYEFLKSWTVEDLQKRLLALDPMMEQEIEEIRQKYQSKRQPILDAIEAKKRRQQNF
Serine/threonine-protein kinase 3 ; STK3 ; Q13188, sequence (Q13188 whole entry, one chain of several): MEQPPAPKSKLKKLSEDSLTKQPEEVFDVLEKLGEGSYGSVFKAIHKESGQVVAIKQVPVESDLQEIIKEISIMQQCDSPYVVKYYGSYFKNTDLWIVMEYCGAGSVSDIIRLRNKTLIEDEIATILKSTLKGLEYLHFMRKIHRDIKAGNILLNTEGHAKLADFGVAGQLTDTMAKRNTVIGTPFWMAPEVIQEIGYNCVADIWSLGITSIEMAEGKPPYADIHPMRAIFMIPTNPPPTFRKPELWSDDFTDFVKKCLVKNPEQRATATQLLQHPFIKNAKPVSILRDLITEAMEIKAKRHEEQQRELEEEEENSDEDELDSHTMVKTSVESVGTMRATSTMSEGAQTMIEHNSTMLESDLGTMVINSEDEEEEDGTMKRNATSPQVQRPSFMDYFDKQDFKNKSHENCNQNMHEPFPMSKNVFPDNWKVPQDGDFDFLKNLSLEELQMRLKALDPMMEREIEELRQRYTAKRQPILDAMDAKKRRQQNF
Serine/threonine-protein kinase D2 ; PRKD2 ; Q9BZL6, sequence (Q9BZL6 whole entry, one chain of several): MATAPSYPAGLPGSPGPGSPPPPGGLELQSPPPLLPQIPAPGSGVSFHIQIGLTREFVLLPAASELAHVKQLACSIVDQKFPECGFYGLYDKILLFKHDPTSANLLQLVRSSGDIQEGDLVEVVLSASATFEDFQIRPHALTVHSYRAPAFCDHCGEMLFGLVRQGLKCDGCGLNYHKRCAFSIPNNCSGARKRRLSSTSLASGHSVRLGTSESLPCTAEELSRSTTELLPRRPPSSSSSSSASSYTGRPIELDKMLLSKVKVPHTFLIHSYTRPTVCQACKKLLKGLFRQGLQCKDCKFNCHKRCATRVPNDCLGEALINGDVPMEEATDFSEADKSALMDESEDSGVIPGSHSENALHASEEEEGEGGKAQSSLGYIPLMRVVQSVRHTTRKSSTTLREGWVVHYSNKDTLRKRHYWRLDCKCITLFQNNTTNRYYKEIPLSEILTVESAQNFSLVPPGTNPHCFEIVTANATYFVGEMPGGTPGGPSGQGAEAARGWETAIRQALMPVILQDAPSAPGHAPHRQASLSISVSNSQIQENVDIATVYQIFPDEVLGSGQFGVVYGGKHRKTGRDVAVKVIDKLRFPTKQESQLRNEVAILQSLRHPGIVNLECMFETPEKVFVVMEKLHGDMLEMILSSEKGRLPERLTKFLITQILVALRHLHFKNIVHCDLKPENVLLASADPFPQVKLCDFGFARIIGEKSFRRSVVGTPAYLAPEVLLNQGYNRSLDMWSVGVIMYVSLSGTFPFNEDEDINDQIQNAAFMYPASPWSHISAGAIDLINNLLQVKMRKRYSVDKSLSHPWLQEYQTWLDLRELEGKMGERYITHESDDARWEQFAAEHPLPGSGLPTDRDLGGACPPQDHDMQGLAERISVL
Ribosomal protein S6 kinase alpha-6 ; RPS6KA6 ; Q9UK32, sequence (Q9UK32 whole entry): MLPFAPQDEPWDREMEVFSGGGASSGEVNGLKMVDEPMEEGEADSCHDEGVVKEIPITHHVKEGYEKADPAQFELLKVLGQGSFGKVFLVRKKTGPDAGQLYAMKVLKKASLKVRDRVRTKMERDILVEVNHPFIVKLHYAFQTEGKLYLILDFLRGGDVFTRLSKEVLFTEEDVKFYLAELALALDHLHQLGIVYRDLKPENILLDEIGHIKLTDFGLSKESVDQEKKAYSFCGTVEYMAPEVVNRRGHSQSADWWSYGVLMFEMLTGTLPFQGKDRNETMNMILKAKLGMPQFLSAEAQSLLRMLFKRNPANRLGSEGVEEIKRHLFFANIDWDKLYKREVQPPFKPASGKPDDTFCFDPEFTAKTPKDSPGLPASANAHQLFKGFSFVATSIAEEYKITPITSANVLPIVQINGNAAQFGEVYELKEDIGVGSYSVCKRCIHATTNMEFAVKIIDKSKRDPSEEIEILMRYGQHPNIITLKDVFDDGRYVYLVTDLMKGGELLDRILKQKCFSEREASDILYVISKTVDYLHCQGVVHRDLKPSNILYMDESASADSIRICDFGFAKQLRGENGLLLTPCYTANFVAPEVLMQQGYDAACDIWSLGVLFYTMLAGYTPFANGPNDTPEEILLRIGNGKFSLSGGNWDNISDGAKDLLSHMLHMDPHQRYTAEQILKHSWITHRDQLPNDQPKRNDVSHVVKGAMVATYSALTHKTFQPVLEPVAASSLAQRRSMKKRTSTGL
Adenylate kinase isoenzyme 6 ; AK6 ; Q9Y3D8, sequence (Q9Y3D8 whole entry): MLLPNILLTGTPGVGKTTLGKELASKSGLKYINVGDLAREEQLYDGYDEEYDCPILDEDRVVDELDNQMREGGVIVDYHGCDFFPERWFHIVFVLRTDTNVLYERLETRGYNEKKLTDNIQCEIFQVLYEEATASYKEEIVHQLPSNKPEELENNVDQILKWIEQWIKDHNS

remaining activity at 10 µM [1, 24]: 122%
remaining activity at 10 µM [2, 24]: 95.9%
remaining activity at 10 µM [3, 24]: 79.4%
remaining activity at 10 µM [4, 24]: 104%
remaining activity at 10 µM [5, 24]: 112%
remaining activity at 10 µM [6, 24]: 95.9%
remaining activity at 10 µM [7, 24]: 94%
remaining activity at 10 µM [8, 24]: 101%
remaining activity at 10 µM [9, 24]: 69.2%
remaining activity at 10 µM [10, 24]: 105%
remaining activity at 10 µM [11, 24]: 113%
remaining activity at 10 µM [12, 24]: 47.6%
remaining activity at 10 µM [13, 24]: 142%
remaining activity at 10 µM [15, 24]: 103%
remaining activity at 10 µM [16, 24]: 91.9%
remaining activity at 10 µM [17, 24]: 53.8%
remaining activity at 10 µM [18, 24]: 96.1%
remaining activity at 10 µM [19, 24]: 96.3%
remaining activity at 10 µM [20, 24]: 129%
remaining activity at 10 µM [21, 24]: 94.2%
remaining activity at 10 µM [22, 24]: 118%
remaining activity at 10 µM [23, 24]: 124%
SMILES: COc1cc(F)ccc1-c1cc(Nc2cc(CS(C)(=N)=O)ccn2)ncc1F (stereo not shown) [BAY-1251152]
remaining activity at 10 µM [14, 24]: 101%

remaining activity at 10 µM [1, 25]: 164%
remaining activity at 10 µM [2, 25]: 91.5%
remaining activity at 10 µM [3, 25]: 82%
remaining activity at 10 µM [4, 25]: 116%
remaining activity at 10 µM [5, 25]: 139%
remaining activity at 10 µM [6, 25]: 95.1%
remaining activity at 10 µM [7, 25]: 94.7%
remaining activity at 10 µM [8, 25]: 102%
remaining activity at 10 µM [9, 25]: 59.1%
remaining activity at 10 µM [10, 25]: 110%
remaining activity at 10 µM [11, 25]: 115%
remaining activity at 10 µM [12, 25]: 34.2%
remaining activity at 10 µM [13, 25]: 106%
remaining activity at 10 µM [15, 25]: 84.9%
remaining activity at 10 µM [16, 25]: 103%
remaining activity at 10 µM [17, 25]: 97.7%
remaining activity at 10 µM [18, 25]: 107%
remaining activity at 10 µM [19, 25]: 99.6%
remaining activity at 10 µM [20, 25]: 119%
remaining activity at 10 µM [21, 25]: 108%
remaining activity at 10 µM [22, 25]: 133%
remaining activity at 10 µM [23, 25]: 119%
SMILES: COc1cc(F)ccc1-c1ncnc(Nc2cccc(C[S@](C)(=N)=O)c2)n1 [BAY-1143572]
remaining activity at 10 µM [14, 25]: 98.2%
